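Briefly, cells in 96-well plates were exposed to five compound concentrations for 48 h, and endpoints were estimated by linear interpolation. GI50 is the concentration that inhibits growth by half. TGI: total growth inhibition.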
Experiments:
Assay in all cases: growth of human tumour cells (NCI), 48 h
UO-31 renal = tested on: UO-31 renal
HOP-62 NSCLC = tested on: HOP-62 NSCLC
NCI-H522 lung = tested on: NCI-H522 lung
HOP-92 NSCLC = tested on: HOP-92 NSCLC
SNB-19 CNS = tested on: SNB-19 CNS
SF-295 CNS = tested on: SF-295 CNS
DU-145 prostate = tested on: DU-145 prostate
HS 578T breast = tested on: HS 578T breast
MDA-MB-231 breast = tested on: MDA-MB-231 breast
SR leukemia = tested on: SR leukemia

Row | Compound | TGI (UO-31 renal) [µM] | TGI (HOP-62 NSCLC) [µM] | TGI (NCI-H522 lung) [µM] | TGI (HOP-92 NSCLC) [µM] | TGI (SNB-19 CNS) [µM] | TGI (SF-295 CNS) [µM] | TGI (DU-145 prostate) [µM] | TGI (HS 578T breast) [µM] | TGI (MDA-MB-231 breast) [µM] | TGI (SR leukemia) [µM] | GI50 (UO-31 renal) [µM] | GI50 (HOP-62 NSCLC) [µM] | GI50 (DU-145 prostate) [µM] | GI50 (NCI-H522 lung) [µM] | GI50 (MDA-MB-231 breast) [µM] | GI50 (HOP-92 NSCLC) [µM] | GI50 (SR leukemia) [µM] | GI50 (SNB-19 CNS) [µM]
1 | COC1=CC(=O)C2C(C1=O)[C@@H]1c3ccccc3OC[C@H]21 (stereo not given in full) | > 100 | > 100 | > 100 | > 100 | > 100 | > 100 |  |  |  |  |  |  |  |  |  |  |  | 
2 | CCCC(=O)Oc1cc(OC(=O)CCC)c2c(C)cc(=O)oc2c1 | > 100 | > 100 |  | > 100 | > 100 | > 100 | > 100 | > 100 | > 100 | 76.9 |  |  |  |  |  |  |  | 
3 | CCN1CCC(O)(/C=C/c2ccc(Cl)cc2)C(C(=O)/C=C/c2ccc(Cl)cc2)C1 (stereo not given) | > 100 | > 100 | 81.5 |  | > 100 | 60.3 |  |  |  | > 100 |  |  |  |  |  |  |  | 
4 | O=c1cc(-c2cccc(Br)c2)[nH]c2cc3c(cc12)OCO3 | 37.9 | 4.8 | 18.3 |  | 10.3 | 6.52 | 18.1 | 26 | 23.1 | > 100 |  |  |  |  |  |  |  | 
5 | C/C=C1/C(=O)O[C@]23C=C[C@@H]4C(C(=O)OC)=CO[C@H](O[C@@H]12)[C@@H]43 | 6.98 | 22 | 2.19 | 3.74 | 10.3 | 5.24 |  |  |  |  |  |  |  |  |  |  |  | 
6 | CC(=O)c1cccc(NC(=O)/C(=N\NC(=S)NN)C2C(=O)Nc3ccccc3S2=O)c1 (stereo not given) | > 100 | > 100 | > 100 | > 100 | > 100 | > 100 |  | > 100 | > 100 | > 100 |  |  |  |  |  |  |  | 
7 | O=C(CSCC(=O)N/N=C/c1ccncc1)N/N=C/c1ccncc1 | > 100 | > 100 | > 100 | > 100 | > 100 | > 100 | > 100 | > 100 | > 100 |  |  |  |  |  |  |  |  | 
8 | CCOC(=O)C1C(=O)c2cccc(OC)c2C2COC(=O)N12 (stereo not given) | > 100 | > 100 | > 100 | > 100 | > 100 | > 100 |  |  |  | > 100 |  |  |  |  |  |  |  | 
9 | COc1ccc(/C=C/C(=O)/C=C(/C=C/c2ccc(OC)c(OC)c2OC)OB(F)F)c(OC)c1OC | 3.65 | > 100 | 4.62 | > 100 | > 100 |  | > 100 |  | > 100 | > 100 | 0.96 | 3.89 | 3.13 | 1.35 | 3.1 | 7.46 | 0.278 | 2.35
10 | O=C(NC(Cc1ccccc1)P(=O)(O)c1ccccc1)OCc1ccccc1 (stereo not given) | > 100 | > 100 | > 100 | > 100 | > 100 | > 100 | > 100 | > 100 |  | > 100 |  |  |  |  |  |  |  | 
11 | Nc1nc2c(ncn2CC(CO)CC(c2ccccc2)P(=O)(O)O)c(=O)[nH]1 (stereo not given) | > 100 | > 100 | > 100 | > 100 | > 100 | > 100 |  |  |  | > 100 |  |  |  |  |  |  |  | 
12 | C=C(C)COC(=O)COCC(=O)OCC(=C)C | > 100 | > 100 |  | > 100 | > 100 | > 100 | > 100 | > 100 | > 100 | > 100 |  |  |  |  |  |  |  | 
13 | CC1CC/C(=C\c2ccc(F)cc2)C2=C1C(c1ccc(F)cc1)n1c(s/c(=C\c3ccc(Cl)cc3)c1=O)=N2 (stereo not given) |  | > 100 |  | > 100 | > 100 |  | > 100 | > 100 | > 100 |  |  |  |  |  |  |  |  | 
14 | COc1cc2c(cc1O)N=C[C@@H]1CCC(O)N1C2=O (mixture of isomers) | 2.79 | 2.91 | 0.636 | 2.46 | 147 | 5.77 |  |  |  |  |  |  |  |  |  |  |  | 
15 | Cc1nc2c(s/c(=N\N)n2-c2ccccc2)c(=O)n1C | > 100 |  | > 100 | > 100 | > 100 | > 100 |  |  |  | > 100 |  |  |  |  |  |  |  | 
16 | CCOC(=O)C(C(=O)OCC)C(NC(=O)Nc1cc(C(F)(F)F)ccc1OC)(C(F)(F)F)C(F)(F)F | 39.5 | 56.6 | 55.9 | 55.8 | > 100 | 84.8 | > 100 | > 100 | 39.7 |  |  |  |  |  |  |  |  | 
17 | O=c1ccc2nc3ccc(O)cc3oc-2c1 | > 100 | > 100 | > 73.5 | > 100 | > 100 | > 100 | 57.5 | > 60 | > 100 |  |  |  |  |  |  |  |  | 
18 | CC(=O)Oc1ccc2c3c1[C@@H]1O[C@@H]1c1cccc(c1-3)[C@@H]1O[C@H]21 | 2.91 | 3.96 |  |  | 23.1 | 3.83 | 4.18 | 5.98 | 3.64 |  |  |  |  |  |  |  |  | 
19 | COc1ccc(NC(C)=O)cc1N1C(=O)/C(=C\c2cccc(Oc3ccccc3)c2)SC1c1ccccc1 (stereo not given) | > 100 | > 100 | > 100 | 79.6 | > 100 | > 100 | > 100 |  | > 100 | 29.4 |  |  |  |  |  |  |  | 
20 | CCOC(=O)c1c[nH]c2cc3c(cc2c1=O)CCS3 | > 100 | > 100 | > 100 | > 100 | > 100 | > 100 | > 100 | > 100 | > 100 |  |  |  |  |  |  |  |  | 
21 | Fc1ccc(C(OCCN2CCC3CCC(C2)N3C/C=C/c2cccnc2)c2ccc(F)cc2)cc1 (stereo not given) | 6.09 | 31 | 27 | 27 | 29.6 | 22.2 | 33.1 | 31.7 | 26.6 |  |  |  |  |  |  |  |  | 
22 | Cc1ccc(S(=O)(=O)NC(=O)NCC(=O)O)cc1 | > 100 | > 100 | > 100 | > 100 | > 100 | > 100 | > 100 | > 100 | > 100 |  |  |  |  |  |  |  |  | 
23 | C[Si](C)(C)C#CCOC=C1CC1 | > 100 | > 100 | > 100 |  | > 100 | > 100 | > 100 | > 100 | > 100 | > 100 |  |  |  |  |  |  |  | 

Reference: PubChem BioAssay (NCI)
